# Assays:
# Assay type in all cases: in vivo, human
# [1] = test system: newly diagnosed elderly patients with poor risk AML; assay: Tipifarnib clinical study in newly diagnosed elderly patients with poor risk AML; conditions: for PFS: N=34
# Description: (§1) Clinical studies with tipifarnib were performed in newly diagnosed elderly patients with poor risk AML or relapsed and refractory AML. In these studies, patient selection was not based on genetic markers. Anecdotal evidence of tipifarnib single agent activity was reported.
# Patient subset—available AML marrow samples with NRAS WT or unknown, N=27 (NCBI GEO, GSE8970).
# Since achievement of CR is the main driver of clinical benefit in AML, additional screenings were conducted to differentiate the CR responses vs HI/SD responses in the higher RHOE expression levels subset of FIG. 3A (replicated in FIG. 4A).
# Another screening conducted to differentiate the CR responses and HI/SD responses from PD responses was based on both RHOE expression levels and RHOA expression levels of the subjects shown in FIG. 3A (replicated in FIG. 5). RHOA mRNA expression data was generated by RNASeq and expressed as RNA Seq V2 RSEM.
# The mRNA expression profiling data from the clinical study with newly diagnosed elderly patients with poor risk AML were also analyzed for CXCR3, CXCL12, and RHOE. Patient subset—available AML marrow samples with NRAS WT, unknown, N-12, N12/N13, or N61 (1,2); N=34. […] Probe 207681 used for CXCR3 in the GPL96 Affimetrix microarray. The combination of the CXCR3 expression levels and CXC12 expression levels of newly-diagnosed elderly, frail AML patients, also correlated with treatment response. In particular, the product (multiplication) of the CXCR3 (“receptor”) expression levels and the CXCL12 (“ligand”) expression levels further differentiated the CR and HI/SD responses from the PD responses in the AML patients treated with tipifarnib. […] PFS in the high CXCL12×CXCR3 product subset was 433 days vs. 64 days in the low expressing product subset (HR=0.24, p=0.005, N=34).
# [2] = test system: relapsed and refractory AML patients; assay: Tipifarnib clinical study in relapsed and refractory AML patients
# Description: as §1
# [3] = test system: relapsed/refractory CMML patients; assay: Tipifarnib clinical study in relapsed/refractory CMML patients
# Description: Clinical studies with tipifarnib were performed in relapsed/refractory CMML patients (N=20) receiving tipifarnib as a single agent orally, twice a day (bid) for 7 days in alternating weeks (Days 1-7 and 15-21) in 28 day cycles. Eligible patients received tipifarnib administered at a starting dose of 1200 mg or 900 mg, orally with food, bid for 7 days in alternating weeks (Days 1-7 and 15-21) in 28 day cycles. Stepwise 300 mg dose reductions to control treatment-related, treatment-emergent toxicities were allowed.
# Inclusion Criteria for this clinical study include: (a) diagnosis of CMML as defined by the World Health Organization (WHO) criteria; (b) Eastern Cooperative Oncology Group (ECOG) performance status 0 or 1; (c) subject is willing and able to comply with scheduled visits, treatment plans, laboratory tests and other procedures (including bone marrow assessments); (d) at least 1 week since the last systemic therapy regimen prior to Cycle 1 Day 1, subjects on a stable dose of hydroxyurea for at least 2 weeks prior to Cycle 1 Day 1 may continue on hydroxyurea until Cycle 1 Day 7, and subjects must have recovered to NCI CTCAE v. […] Both females and male subjects with female partners of child-bearing potential must agree to use an adequate method of contraception for 2 weeks prior to screening, during, and at least 4 weeks after last dose of study medication. Female subjects must have a negative serum or urine pregnancy test within 72 hours prior to start of study medication. Not breast feeding at any time during the study; and (h) written and voluntary informed consent understood, signed and dated. […]
# [4] = higher pre-treatment CXCL12xCXCR3 product levels (20,000 or more) (FIG. 7)
# [5] = lower RHOE expression levels (FIG. 3A)
# [6] = lower pre-treatment CXCL12xCXCR3 product levels (less than 20,000) (FIG. 7)
smiles,measurement,setting,value
Cn1cncc1[C@@](N)(c1ccc(Cl)cc1)c1ccc2c(c1)c(-c1cccc(Cl)c1)cc(=O)n2C [tipifarnib],median progression free survival,[1]; CXCR3 expression levels in the first quartile (FIG. 9),about 10 days
same,median progression free survival,"[1]; CXCR3 expression levels in the fourth quartile, p=0.0004 (FIG. 9)",406 days
same,median progression free survival,[1]; CXCR3 expression levels in the second quartile (FIG. 9),about 70 days
same,median progression free survival,[1]; CXCR3 expression levels in the third quartile (FIG. 9),248 days
same,median progression free survival,[1]; RND3 expression levels greater than or equal to 144 (higher RHOE) (FIG. 3B),8.2 months
same,median progression free survival,[1]; RND3 expression levels less than 144 (lower RHOE) (FIG. 3B),2.2 months
same,PFS,[1]; high CXCL12xCXCR3 product subset,433 days
same,PD responses,[1]; higher RHOE expression levels (FIG. 3A),1 out of 14
same,CR responses,[1]; [4],8 out of 14 subjects
same,PD responses,[1]; [4],0 out of 14
same,SD/HI responses,[1]; [4],6 out of 14 subjects
same,PFS,[1]; low expressing CXCL12xCXCR3 product subset,64 days
same,CR responses,[1]; [5],0 out of 13 subjects
same,PD responses,[1]; [5],7 out of 13 subjects
same,CR responses,[1]; [6],1 out of 20 subjects
same,PD responses,[1]; [6],13 out of 20 subjects
same,SD/HI responses,[1]; [6],6 out of 20 subjects
same,"HR (PFS, high vs low CXCL12xCXCR3 product subset)","[1]; p=0.005, N=34",0.24
same,CR responses,"[1]; treatment naive elderly, frail AML patients with higher RHOE expression levels (FIG. 3A)",8 out of 14 subjects
same,mPFS percentage,"[2]; CXCR3 expression levels in the first tertiale, N=58 (FIG. 10)",54 days
same,mPFS percentage,"[2]; CXCR3 expression levels in the second tertiale, N=58 (FIG. 10)",75 days
same,mPFS percentage,"[2]; CXCR3 expression levels in the third tertiale, N=58, p=0.009 (FIG. 10)",182 days
same,median Time to Treatment Failure (TTF),"[3]; tertiale 1 (lowest PRICKLE2 expression), tipifarnib single agent (FIG. 11)",99 days
same,median Time to Treatment Failure (TTF),"[3]; tertiale 2 of PRICKLE2 expression, tipifarnib single agent (FIG. 11)",84 days
same,median Time to Treatment Failure (TTF),"[3]; tertiale 3 (highest PRICKLE2 expression), tipifarnib single agent, p=0.047 vs tertiale 1 (FIG. 11)",288 days
